Measured values from ChEMBL document CHEMBL4190398, “Detailed Exploration around 4-Aminoquinolines Chemical Space to Navigate the Lysine Methyltransferase G9a and DNA Methyltransferase Biological Spaces” (J Med Chem, 2018).

Columns and labels:
[1] = Metabolic stability in mouse liver microsomes assessed as parent compound remaining at 1 uM preincubated for 10 mins followed by NADP addition measured after 20 mins by LC-MS/MS analysis; type: ADME, microsome; conditions: read-out: Stability
THLE-2 = experiment: Cytotoxicity against human THLE2 cells assessed as reduction in cell viability after 72 hrs by MTS assay; type: cell-based; conditions: thle-2, 72 h
[2] = Metabolic stability in human liver microsomes assessed as parent compound remaining at 1 uM preincubated for 10 mins followed by NADP addition measured after 20 mins by LC-MS/MS analysis; type: ADME, microsome; conditions: read-out: Stability

Structure (SMILES) | remaining at 20 min, 1 µM [1] | LC50 (THLE-2) | remaining at 20 min, 1 µM [2]
CCc1ccc(-c2cc(NCC3CCN(C)CC3)c3cc(OC)c(OCCCN4CCCC4)cc3n2)o1 | 59.1% | 954 nM | 69%
CCc1ccc(-c2cc(NC3CCN(C)CC3)c3cc(OC)c(OCCCN4CCCCC4)cc3n2)o1 | – | 1380 nM | –
CCc1ccc(-c2cc(NC3CCC34CCN(C)CC4)c3cc(OC)c(OCCCN4CCCC4)cc3n2)o1 (stereo not drawn) | – | 517 nM | –
Cc1ccc(-c2cc(NC3CCN(C)CC3)c3cc(Cl)c(OCCCN4CCCC4)cc3n2)o1 | 81.7% | 2310 nM | 81.7%
COc1cc2c(NC3CC4(CCN(C(C)C)CC4)C3)cc(-c3ccc(C)o3)nc2cc1OCCCN1CCCC1 | – | 841 nM | –
CCc1ccc(-c2cc(NC3CCN(C)CC3)c3cc(OC)c(OCCCN4CCC5(CC5)C4)cc3n2)o1 | – | 2040 nM | –
COc1cc2c(NC3CCN(C)CC3)cc(-c3ccc(C)o3)nc2cc1OCC1CCN(C)CC1 | – | 1030 nM | –
COc1cc2c(NCC3CCN(C(C)C)CC3)cc(-c3ccc(C)o3)nc2cc1OCCCN1CCCC1 | – | 777 nM | –
COc1cc2c(NC3CCN(C)CC3)cc(-c3ccc(C)o3)nc2cc1OCC1CCNCC1 | – | 24800 nM | –
COc1cc2c(NC3CCC34CCN(C)CC4)cc(-c3ccc(C)o3)nc2cc1OCCCN1CCCC1 (stereo not drawn) | 53.3% | 731 nM | 80.4%
CCc1ccc(-c2cc(NC3CCN(C)CC3)c3cc(OC)c(OCCCN(C)C)cc3n2)o1 | – | 3520 nM | –
COc1cc2c(NC3C4CCC3CN(C)C4)cc(-c3ccc(C)o3)nc2cc1OCCCN1CCCC1 (stereo not drawn) | – | 527 nM | –
COc1cc2c(NC3CC4(CCN(C(C)C)CC4)C3)cc(-c3ccc(C)o3)nc2cc1OC1CC2(C1)CN(C)C2 (stereo not drawn) | – | 4650 nM | –
CCc1ccc(-c2cc(NCC3C4CCC3CN(C)C4)c3cc(OC)c(OCCCN4CCCC4)cc3n2)o1 (stereo not drawn) | – | < 164 nM | –
CCc1ccc(-c2cc(NC3CCN(C)CC3)c3cc(OC)c(OCCCN4CCCC4)cc3n2)o1 | – | 2320 nM | –
COc1cc2c(NC3CC4(CCN(C)C4)C3)cc(-c3ccc(C)o3)nc2cc1OCCCN1CCCC1 (stereo not drawn) | – | 8380 nM | –
COc1cc2c(NC3CC4(CCN(C)CC4)C3)cc(-c3ccc(C)o3)nc2cc1OCCCN1CCCC1 | 40.6% | 992 nM | 68.6%
COc1cc2c(NC3CCN(C)C(=O)C3)cc(-c3ccc(C)o3)nc2cc1OCCCN1CCCC1 (stereo not drawn) | 71.9% | 7950 nM | 82.7%
COc1cc2c(NC3CCN(C)CC3)cc(-c3ccc(C)o3)nc2cc1OCCCN1CCCC1 | – | 1780 nM | –
COc1cc2c(NC3CCN(C)CC3)cc(-c3ccc(C)o3)nc2cc1OC1CC2(C1)CN(C)C2 | 43.3% | 698 nM | 49.8%
COc1cc2c(NC3CCC34CCN(C)C4)cc(-c3ccc(C)o3)nc2cc1OCCCN1CCCC1 (stereo not drawn) | – | 1980 nM | –
COc1cc2c(NC3CC4(CCN(C)CC4)C3)cc(-c3ccc(C)o3)nc2cc1OCC1CCN(C)CC1 | – | 2530 nM | –
COc1cc2c(NC3CC4CCC(C3)N4C)cc(-c3ccc(C)o3)nc2cc1OCCCN1CCCC1 (stereo not drawn) | 43.9% | 4150 nM | 60.3%
COc1cc2c(NCC3CCN(C)CC3)cc(-c3ccc(C)o3)nc2cc1OCCCN1CCCC1 | – | 1300 nM | –
